Source: patent US20250206732A1, “COMPOUNDS AND METHODS FOR THE TARGETED DEGRADATION OF KRAS” (Arvinas Operations, Inc., priority 2022, published 2025)

Biological target: T1, AsPC-1 HiBiT-KRASG12D (Homo sapiens, UniProt P01116, G12D)
T1 construct: insert the HiBiT tag onto the N-terminus of one or more of the endogenous KRAS alleles; endogenous in cells; host or cells: AsPC-1 (ATCC CRL-1682), CRISPR-Cas9 knock-in clone, one tagged allele
Test: HiBiT degradation assay (G12D), AsPC-1 HiBiT-KRASG12D cells
Type: cell-based
Conditions: 24 hours treatment; for Dmax: ASPC1, AsPC-1 HiBiT-KRASG12D cells, maximum degradation observed; for DC50: AsPC-1 HiBiT-KRASG12D cells, HiBiT luminescence
In short: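 In this degradation format, an engineered AsPC-1 clone with HiBiT fused to the KRAS N-terminus is exposed to compounds for 24 hours, after which remaining tagged protein is quantified by lytic HiBiT luminescence.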

T1 sequence (P01116 1-188 isoform P01116-2 G12D): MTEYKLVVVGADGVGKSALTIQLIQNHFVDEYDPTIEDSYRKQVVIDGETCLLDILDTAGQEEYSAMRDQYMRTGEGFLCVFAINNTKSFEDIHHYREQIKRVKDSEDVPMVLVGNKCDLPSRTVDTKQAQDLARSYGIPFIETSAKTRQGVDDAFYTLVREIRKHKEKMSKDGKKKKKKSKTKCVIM

Structure (SMILES)	Dmax [%]	DC50 [nM]
CCc1cccc2cc(O)cc(-c3ncc4c(N5CC6CCC(C5)N6)nc(OCCN5CCC(CN6CC7(C6)CN(c6cc([C@H](C(=O)N8C[C@H](O)C[C@H]8C(=O)N[C@@H](C)c8ccc(-c9scnc9C)cc8)C(C)C)on6)C7)CC5)nc4c3F)c12 [Compound 235, (2S,4R)-1-[(2R)-2-[3-[6-[1-[2-[[4-(3,8-diazabicyclo[3.2.1]octan-3-yl)-7-(8-ethyl-3-hydroxy-1-naphthyl)-8-fluoro-pyrido[4,3-d]pyrimidin-2-yl]oxyethyl]-4-piperidyl]methyl]-2,6-diazaspiro[3.3]heptan-2-yl]isoxazol-5-yl]-3-methyl-butanoyl]-4-hydroxy-N-[(1S)-1-[4-(4-methylthiazol-5-yl)phenyl]ethyl]pyrrolidine-2-carboxamide]	80 to 100	< 600
CCc1cccc2cc(O)cc(-c3ncc4c(N5CC6CCC(C5)N6)nc(OCCN5CCC(CN6CC7(C6)CN(c6cc([C@@H](C(=O)N8C[C@H](O)C[C@H]8C(=O)N[C@@H](C)c8ccc(-c9scnc9C)cc8)C(C)C)on6)C7)CC5)nc4c3F)c12 [Compound 236]	–	> 3000
CCc1cccc2cc(O)cc(-c3ncc4c(N5CC6CCC(C5)N6)nc(OCCN5CCC(C)(CCOc6cc([C@H](C(=O)N7C[C@H](O)C[C@H]7C(=O)N[C@@H](C)c7ccc(-c8scnc8C)cc7)C(C)C)on6)CC5)nc4c3F)c12 [Compound 237]	–	> 3000
CCc1cccc2cc(O)cc(-c3ncc4c(N5CC6CCC(C5)N6)nc(OCCN5CCC(C)(CCOc6cc([C@@H](C(=O)N7C[C@H](O)C[C@H]7C(=O)N[C@@H](C)c7ccc(-c8scnc8C)cc7)C(C)C)on6)CC5)nc4c3F)c12 [Compound 238]	80 to 100	< 600
CCc1cccc2cc(O)cc(-c3ncc4c(N5CC6CCC(C5)N6)nc(OCCN5CCC(F)(CC6CCN(c7cc([C@H](C(=O)N8C[C@H](O)C[C@H]8C(=O)N[C@@H](C)c8ccc(-c9scnc9C)cc8)C(C)C)on7)CC6)CC5)nc4c3F)c12 [Compound 239]	80 to 100	< 600
CCc1cccc2cc(O)cc(-c3ncc4c(N5CC6CCC(C5)N6)nc(OCCN5CCC(F)(CC6CCN(c7cc([C@@H](C(=O)N8C[C@H](O)C[C@H]8C(=O)N[C@@H](C)c8ccc(-c9scnc9C)cc8)C(C)C)on7)CC6)CC5)nc4c3F)c12 [Compound 240]	–	> 3000
CCc1cccc2cc(O)cc(-c3ncc4c(N5CCCCCC5)nc(OC[C@@H]5CC[C@@H](COC(=O)N6CC(Oc7cc([C@H](C(=O)N8C[C@H](O)C[C@H]8C(=O)N[C@@H](C)c8ccc(-c9scnc9C)cc8)C(C)C)on7)C6)N5C)nc4c3F)c12 [Compound 241]	60 to 80	< 600
CCc1cccc2cc(O)cc(-c3ncc4c(N5CC6CCC(C5)N6)nc(OCCN5CCC[C@H](CN6CCN(c7cc([C@H](C(=O)N8C[C@H](O)C[C@H]8C(=O)N[C@@H](C)c8ccc(-c9scnc9C)cc8)C(C)C)on7)CC6)C5)nc4c3F)c12 [Compound 243, (2S,4R)-1-[(2R)-2-[3-[4-[(3R)-1-[2-[[4-(3,8-diazabicyclo[3.2.1]octan-3-yl)-7-(8-ethyl-3-hydroxy-1-naphthyl)-8-fluoro-pyrido[4,3-d]pyrimidin-2-yl]oxyethyl]-3-piperidyl]methyl]piperazin-1-yl]isoxazol-5-yl]-3-methyl-butanoyl]-4-hydroxy-N-[(1S)-1-[4-(4-methylthiazol-5-yl)phenyl]ethyl]pyrrolidine-2-carboxamide]	80 to 100	< 600
CCc1cccc2cc(O)cc(-c3ncc4c(N5CC6CCC(C5)N6)nc(OCCN5CCC(CN6CC(Oc7cc([C@H](C(=O)N8C[C@H](O)C[C@H]8C(=O)N[C@@H](C)c8ccc(-c9scnc9C)cc8)C(C)C)on7)C6)CC5)nc4c3F)c12 [Compound 244, (2S,4R)-1-[(2R)-2-[3-({1-[(1-{2-[(4-{3,8-diazabicyclo[3.2.1]octan-3-yl}-7-(8-ethyl-3-hydroxynaphthalen-1-yl)-8-fluoropyrido[4,3-d]pyrimidin-2-yl)oxy]ethyl}piperidin-4-yl)methyl]azetidin-3-yl}oxy)-1,2-oxazol-5-yl]-3-methylbutanoyl]-4-hydroxy-N-[(1S)-1-[4-(4-methyl-1,3-thiazol-5-yl)phenyl]ethyl] pyrrolidine-2-carboxamide]	80 to 100	< 600
CCc1cccc2cc(O)cc(-c3ncc4c(N5CC6CCC(C5)N6)nc(OCCN5CCC(CN6CC(Oc7cc([C@@H](C(=O)N8C[C@H](O)C[C@H]8C(=O)N[C@@H](C)c8ccc(-c9scnc9C)cc8)C(C)C)on7)C6)CC5)nc4c3F)c12 [Compound 245]	–	> 3000
CCc1cccc2cc(O)cc(-c3ncc4c(N5CC6CCC(C5)N6C=O)nc(OCCN5CCC(CC6CN(c7cc([C@H](C(=O)N8C[C@H](O)C[C@H]8C(=O)N[C@@H](C)c8ccc(-c9scnc9C)cc8)C(C)C)on7)C6)CC5)nc4c3F)c12 [Compound 246]	–	> 3000
CCc1cccc2cc(O)cc(-c3ncc4c(N5CC6CCC(C5)N6C=O)nc(OCCN5CCC(CC6CN(c7cc([C@@H](C(=O)N8C[C@H](O)C[C@H]8C(=O)N[C@@H](C)c8ccc(-c9scnc9C)cc8)C(C)C)on7)C6)CC5)nc4c3F)c12 [Compound 247]	–	> 3000
CCc1cccc2cc(O)cc(-c3ncc4c(N5CC6CCC(C5)N6)nc(OCCN5CCC(CCOc6cc([C@@H](C(=O)N7C[C@H](O)C[C@H]7C(=O)N[C@@H](C)c7ccc(-c8scnc8C)cc7)C(C)C)on6)CC5)nc4c3F)c12 [Compound 248]	–	> 3000
CCc1cccc2cc(O)cc(-c3ncc4c(N5CC6CCC(C5)N6)nc(OCCN5CCC(CCOc6cc([C@H](C(=O)N7C[C@H](O)C[C@H]7C(=O)N[C@@H](C)c7ccc(-c8scnc8C)cc7)C(C)C)on6)CC5)nc4c3F)c12 [Compound 249]	80 to 100	< 600
CCc1cccc2cc(O)cc(-c3ncc4c(N5C[C@H]6CC[C@@H](C5)N6)nc(OC[C@@H]5CC[C@@H](COC(=O)N6CCC(Oc7cc([C@@H](C(=O)N8C[C@H](O)C[C@H]8C(=O)N[C@@H](C)c8ccc(-c9scnc9C)cc8)C(C)C)on7)CC6)N5C)nc4c3F)c12 [Compound 255, ((2S,5S)-5-(((4-((1R,5S)-3,8-diazabicyclo[3.2.1]octan-3-yl)-7-(8-ethyl-3-hydroxynaphthalen-1-yl)-8-fluoropyrido[4,3-d]pyrimidin-2-yl)oxy)methyl)-1-methylpyrrolidin-2-yl)methyl 4-((5-((S)-1-((2S,4R)-4-hydroxy-2-(((S)-1-(4-(4-methylthiazol-5-yl)phenyl)ethyl)carbamoyl)pyrrolidin-1-yl)-3-methyl-1-oxobutan-2-yl)isoxazol-3-yl)oxy)piperidine-1-carboxylate]	20 to 60	600 to 1000
CCc1cccc2cc(O)cc(-c3ncc4c(N5C[C@H]6CC[C@@H](C5)N6)nc(OC[C@@H]5CC[C@@H](COC(=O)N6CC7(C6)CN(c6cc([C@H](C(=O)N8C[C@H](O)C[C@H]8C(=O)N[C@@H](C)c8ccc(-c9scnc9C)cc8)C(C)C)on6)C7)N5C)nc4c3F)c12 [Compound 256, ((2S,5S)-5-(((4-((1R,5S)-3,8-diazabicyclo[3.2.1]octan-3-yl)-7-(8-ethyl-3-hydroxynaphthalen-1-yl)-8-fluoropyrido[4,3-d]pyrimidin-2-yl)oxy)methyl)-1-methylpyrrolidin-2-yl)methyl 6-(5-((R)-1-((2S,4R)-4-hydroxy-2-(((S)-1-(4-(4-methylthiazol-5-yl)phenyl)ethyl)carbamoyl)pyrrolidin-1-yl)-3-methyl-1-oxobutan-2-yl)isoxazol-3-yl)-2,6-diazaspiro[3.3]heptane-2-carboxylate]	80 to 100	< 600
CCc1cccc2cc(O)cc(-c3ncc4c(N5CC6CCC(C5)N6)nc(OC[C@@H]5CC[C@H](COC(=O)N6CCN(c7cc([C@H](C(=O)N8C[C@H](O)C[C@H]8C(=O)N[C@@H](C)c8ccc(-c9scnc9C)cc8)C(C)C)on7)CC6)N5C)nc4c3F)c12 [Compound 259, [(2R,5S)-5-{[(4-{3,8-diazabicyclo[3.2.1]octan-3-yl}-7-(8-ethyl-3-hydroxynaphthalen-1-yl)-8-fluoropyrido[4,3-d]pyrimidin-2-yl)oxy]methyl}-1-methylpyrrolidin-2-yl]methyl 4-{5-[(2R)-1-[(2S,4R)-4-hydroxy-2-{[(1S)-1-[4-(4-methyl-1,3-thiazol-5-yl)phenyl]ethyl]carbamoyl}pyrrolidin-1-yl]-3-methyl-1-oxobutan-2-yl]-1,2-oxazol-3-yl}piperazine-1-carboxylate]	80 to 100	< 600
CCc1cccc2cc(O)cc(-c3ncc4c(N5CC6CCC(C5)N6)nc(OCCN5CCC(CC6(F)CCN(CC(=O)N[C@H](C(=O)N7C[C@H](O)C[C@H]7C(=O)N[C@@H](C)c7ccc(-c8scnc8C)cc7)C(C)(C)C)CC6)CC5)nc4c3F)c12 [Compound 260, (2S,4R)-1-[(2S)-2-(2-{4-[(1-{2-[(4-{3,8-diazabicyclo[3.2.1]octan-3-yl}-7-(8-ethyl-3-hydroxynaphthalen-1-yl)-8-fluoropyrido[4,3-d]pyrimidin-2-yl)oxy]ethyl}piperidin-4-yl)methyl]-4-fluoropiperidin-1-yl}acetamido)-3,3-dimethylbutanoyl]-4-hydroxy-N-[(1S)-1-[4-(4-methyl-1,3-thiazol-5-yl)phenyl]ethyl]pyrrolidine-2-carboxamide]	80 to 100	< 600
